Measurements published in patent US20260055117A1, “SUBSTITUTED PYRIDONE GPR84 ANTAGONISTS AND USES THEREOF” (Liminal BioSciences Limited, priority 2022, published 2026).

Assays:
[1] = test system: dextran sodium sulfate-induced chronic inflammatory bowel disease; details: mouse; once-daily doses of 3 and 10 mg/kg; cited from earlier work
human GPR84 receptor = biological target: T1, human GPR84 receptor (Homo sapiens, UniProt Q9NQS5); experiment: Gαi biosensor BRET assay (GPR84 antagonism vs agonist ZQ-16); type: cell-based; details: HEK293 cells, 200 nmol/L agonist ZQ-16; for inhibition at 2 µM: tested at 2 μM (concentration code A); for IC50: Gαi biosensor BRET assay; for inhibition at 10 µM: tested at 10 μM (concentration code D)
T1 construct: host or cells: HEK293, transiently transfected
Method in brief: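 HEK293 cells transiently expressing GPR84, Gαi2-Rluc8, GFP10-Gγ2 and Gβ1 were pre-incubated with compounds 5 min at 37 °C in Tyrode's buffer pH 7.5, then stimulated with 200 nmol/L ZQ-16 for 5 min at room temperature. BRET2 (acceptor/donor ratio) read after 5 μmol/L coelenterazine 400A, background- and vehicle-corrected.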

T1 sequence (Q9NQS5 whole entry): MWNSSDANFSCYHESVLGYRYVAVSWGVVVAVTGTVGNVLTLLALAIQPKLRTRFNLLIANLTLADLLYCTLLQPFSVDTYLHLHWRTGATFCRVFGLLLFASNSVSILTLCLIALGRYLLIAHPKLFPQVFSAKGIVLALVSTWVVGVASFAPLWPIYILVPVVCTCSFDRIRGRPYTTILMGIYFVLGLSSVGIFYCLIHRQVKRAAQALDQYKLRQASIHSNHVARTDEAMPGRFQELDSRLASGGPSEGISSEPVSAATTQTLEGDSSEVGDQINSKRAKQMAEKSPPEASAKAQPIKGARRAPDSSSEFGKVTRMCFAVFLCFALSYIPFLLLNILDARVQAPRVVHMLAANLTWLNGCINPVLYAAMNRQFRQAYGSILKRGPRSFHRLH

inhibition at 2 µM (human GPR84 receptor) [%]	IC50 (human GPR84 receptor) [nM]	inhibition at 10 µM (human GPR84 receptor) [%]	Structure (SMILES)	also measured
–	–	–	O=c1nc(OC[C@@H]2COCCO2)cc2n1CCc1cc(C#CC3CC3)ccc1-2 [GLPG1205]	disease activity index score [1]: reduced; neutrophil infiltration [1]: reduced
> 75	–	–	Cc1cc(OCC(=O)N2CC[C@@H](NS(C)(=O)=O)C2)cc(=O)n1[C@H](C)c1ccc(C#CC2CC2)cc1 [Compound I-336]	–
> 75	≤ 300	–	[2H]C([2H])([2H])N(C(=O)COc1cc(C)n([C@H](C)c2ccc(C#CC3CC3)cc2)c(=O)c1)C([2H])([2H])[2H] [Compound I-6]	–
–	–	25 to 50	Cc1cc(OCC(=O)NCCN2CCCC2)cc(=O)n1[C@H](C)c1ccc(C#CC2CC2)cc1 [Compound I-346]	–
–	–	< 25	Cn1c(-c2ccc(C#CC3CC3)cc2)cc(OCC2COCCO2)nc1=O (centres unmarked) [Compound I-215]	–
–	300 to 1000	> 75	Cc1cc(OCC(=O)N2CC(F)(F)C2)cc(=O)n1[C@H](C)c1ccc(C#CC2CC2)c(F)c1 [Compound I-24]	–
–	≤ 300	> 75	Cc1cc(OCC(=O)N(C)C)cc(=O)n1[C@H](C)c1ccc(C#CC2CC2(F)F)c(F)c1 (stereo partly drawn) [Compound I-64, 2-((1-((1R)-1-(4-((2,2-difluorocyclopropyl)ethynyl)-3-fluorophenyl)ethyl)-6-methyl-2-oxo-1,2-dihydropyridin-4-yl)oxy)-N,N-dimethylacetamide]	–
–	–	25 to 50	Cc1nc(OCC(=O)N2CCCC2)cc(=O)n1[C@@H](C)c1ccc(C#CC2CC2)cc1 [Compound I-236]	–
> 75	≤ 300	–	Cc1cc(OCC(=O)N2CC(C)C2)cc(=O)n1[C@H](C)c1ccc(C#CC2CC2)cc1 [Compound I-290]	–
–	–	50 to 75	Cc1cc(OCC(=O)N2CCC3(CC2)CN(C)C3)cc(=O)n1[C@H](C)c1ccc(C#CC2CC2)cc1 [Compound I-203]	–
–	300 to 1000	> 75	Cc1cc(OCC(=O)N2CC(F)(F)C2)cc(=O)n1[C@H](C)c1ccc(C#CC2CC2)cc1 [Compound I-7]	–
–	–	< 25	Cc1cc(OCc2cnc(C3CC3)cn2)cc(=O)n1C(C)c1ccc(OCC2CCCCO2)c(F)c1 (centres unmarked) [Compound I-13]	–
> 75	≤ 300	–	Cc1cc(OCC(=O)N2CC(CO)C2)cc(=O)n1[C@H](C)c1ccc(C#CC2CC2)cc1 [Compound I-291]	–
–	–	> 75	Cc1cc(OCC(=O)N2CC3(CCN(C)CC3)C2)cc(=O)n1[C@H](C)c1ccc(C#CC2CC2)cc1 [Compound I-79]	–
–	–	50 to 75	Cc1cc(OCC2(N(C)C)CC2)cc(=O)n1[C@H](C)c1ccc(C#CC2CC2)cc1 [Compound I-30]	–
–	–	< 25	Cc1cc(OCC(=O)O)cc(=O)n1[C@@H](C)c1ccc(C#CC2CC2)cc1 [Compound I-303]	–
–	–	50 to 75	Cc1cc(OCc2ncccn2)cc(=O)n1[C@H](C)c1ccc(C#CC2CC2(F)F)cc1 (some centres unmarked) [Compound I-62]	–
–	1000 to 3000	> 75	Cc1cc(OCC(=O)N2CC[C@@H]2C(=O)O)cc(=O)n1[C@H](C)c1ccc(C#CC2CC2)cc1 [Compound I-300]	–
–	–	50 to 75	Cc1cc(OCC(=O)NC2COC2)cc(=O)n1[C@H](C)c1ccc(C#CC2CC2)cc1 [Compound I-52]	–
> 75	≤ 300	–	Cc1cc(OCc2ncc(NS(=O)(=O)C(F)(F)F)cn2)cc(=O)n1[C@H](C)c1ccc(C#CC2CC2)cc1 [Compound I-76]	–
> 75	≤ 300	–	CNS(=O)(=O)[C@@H]1CCN(C(=O)COc2cc(C)n([C@H](C)c3ccc(C#CC4CC4)cc3)c(=O)c2)C1 [Compound I-321]	–
–	300 to 1000	> 75	Cc1cc(OCC(=O)NC2CC2)cc(=O)n1[C@H](C)c1ccc(C#CC2CC2)cc1 [Compound I-50]	–
> 75	≤ 300	–	Cc1cc(OCC(=O)N2CC[C@@H](O)C2)cc(=O)n1[C@H](C)c1ccc(C#CC2CC2)cc1 [Compound I-241]	–
